Where two headings read alike, the source gives them in different places.

For orientation: Ki means a dissociation constant, usually derived from enzyme kinetics or from competition with a known ligand. Low readings indicate higher affinity, high ones lower affinity. For orientation: IC50 means the concentration needed to halve the response being measured.

Test [1] deals with promastigotes of Lmex^ΔNT1+TcrNT2. Put plainly: Resazurin-based assay on Cas9^ΔNT1+TcrNT2 promastigotes. Type of test: cell-based, Leishmania mexicana. As to conditions: for EC50: Leishmania mexicana, read-out: Lmex^ΔNT1+TcrNT2 EC50 (μM); for Lmex^ΔNT1+TcrNT2 Sensitization (fold): ratio of the EC50 values of the Cas9^ΔNT1 and Cas9^ΔNT1+TcrNT2 strains. As to the method: (§1) Bloodstream trypomastigotes of the Y strain (DTU II) were obtained by cardiac puncture of infected Swiss Webster mice on the parasitemia peak to perform drug sensitivity assays. Trypomastigote forms of the Tulahuen-β gal strain were collected from the supernatant of previously infected L929 cell cultures (host/parasite cell ratio 10:1). The intracellular forms T. cruzi were studied by the infection of L929 and H9C2 (2D and 3D) cell cultures infected for 48 and 24 h with trypomastigotes of Tulahuen-β gal and Y strains, respectively. The Leishmania mexicana-Cas9 T7 strain (LmexCas9) was derived from L. mexicana WT promastigotes by expression of the Streptococcus pyogenes Cas9 nuclease gene ‘Cas9′ and maintained on 32 μg/mL hygromycin [51]. This strain and the derived strains Cas9^ΔNT1 and Cas9^ΔNT1+TcrNT2 were cultured in HOMEM medium supplemented with 10% of FBS and 1% Penicillin-Streptomycin antibiotic in unvented flasks at 25 °C [52]. The Cas9^ΔNT1 strain is identical to Cas9 except that the LmexNT1.1/NT1.2 locus encoding the L. mexicana adenosine/ pyrimidine transporters was excised using Cas9 [17, 40]. Cas9^ΔNT1+TcrNT2 is the further modification of that strain by the expression of the T. cruzi nucleoside transporter 2 (TcrNT2) gene in it, using the vector pNUS-HcN [53]. Appropriate antibiotics were added for the selection and maintenance of transfectants.
(§2) The EC50 values for nucleoside analogues against Leishmania mexicana promastigotes of the Cas9, Cas9^ΔNT1 and Cas9^ΔNT1+TcrNT2 strains used a resazurin-based assay, as described. Briefly, the assays were performed in standard HOMEM medium and culture conditions, in white opaque 96-well plates. For each test compound (stored as a 40 mM stock solution in 100% DMSO at −20 °C), a doubling dilution was performed over 2 rows of the plate, keeping the last well free as no-drug control with HOMEM only (23 doubling dilutions; highest concentration 100 µM). To each well, 100 µL of HOMEM containing 2 × 10^5 cells of the appropriate L. mexicana line was added, and the plates incubated for 72 h at 25 °C, followed by the addition of 20 µL of resazurin solution and further incubation for 48 h. Fluorescence was read on a FLUOstar OPTIMA plate reader (BMG Labtech, Germany), at an excitation wavelength of 544 nm and an emission wavelength of 620 nm. The EC50 values were determined by the GraphPad Prism 8.0 software using an equation for a sigmoid curve with variable slope. Pentamidine was used as positive control, and every experiment was independently performed at least 3 times independently.

Test [2] relates to promastigotes of Cas9^ΔNT1. In words: Resazurin-based assay on Cas9^ΔNT1 promastigotes. Type of test: cell-based, Leishmania mexicana. As to conditions: Leishmania mexicana, read-out: Cas9^ΔNT1 EC50 (μM), promastigotes, resazurin-based assay, highest concentration 100 µM. On the procedure:
as §1, §2
On the technique in general: Resazurin is reduced to fluorescent resorufin, in cell work by metabolically active cells.

Test [3] deals with promastigotes of LmexCas9. In words: Resazurin-based assay on LmexCas9 promastigotes. Type of test: cell-based, Leishmania mexicana. As to the method: as §1, §2
Another test addresses LmexNT1 (Leishmania mexicana, UniProt E9AQB5). In words: Inhibition of [3H]-adenosine uptake by LmexNT1.1 expressed in L. mexicana promastigotes. Type of test: biochemical. As to the method: Figure 2 Uptake of 50 nM [^3H]-adenosine by LmexNT1.1 expressed in L. mexicana promastigotes from which both original alleles of LmexNT1.1/NT1.2 and of LmexNT2 had been deleted by CRISPR/cas9. Incubation time was 10 s, well within the linear phase of uptake. Symbols represent averages of triplicate determinations, and error bars indicate ± SEM when not shown error bars fall within the symbol. The graph shown is a single experiment in triplicate, representative of three identical, independent repeats.
Uptake of 50 nM 2,8-^3H-adenosine (American Radiolabelled Chemicals (ART0287A), 40 Ci/ mmol) was exactly measured, exactly as described. Briefly, promastigotes were washed into the standard assay buffer (AB) by centrifugation, and aliquots of 100 µL containing 10^7 parasites were incubated with the radiolabel on top of an oil layer in a microfuge tube, for exactly 5 s. The incubation was stopped by the addition of 800 µL of ice-cold 1 mM adenosine in AB and immediate centrifugation through the oil layer to separate cells from the remaining extracellular radiolabel. Cell pellets were collected in scintillation vials after flash freezing in liquid nitrogen, by cutting of the tip of the microfuge tube. The promastigotes were then solubilised in 1% SDS, and scintillation fluid was added (Scintlogic U, Lablogic), and radioactivity was quantified in a Hidex 300SL scintillation counter (Lablogic). Data was plotted using non-linear regression with an equation for a sigmoid curve with a variable slope in Prism v8 (GraphPad).

Another test concerns H9C2 3D cultures. In words: Cardiotoxicity on H9C2 organoids (3D), PrestoBlue. As to conditions: Rattus norvegicus, H9c2, 168 h, 3D H9C2, seven days of compound incubation; 95% confidence interval in brackets; read-out: Cardiotoxic profile IC50 (µM) 3D. Type of test: cell-based, rat. The text has this:
(§3) L929 cell lines were used to evaluate the effect of the nucleoside derivatives on the cellular viability of mammalian host cells and to assess their activity against intracellular forms of T. cruzi (Tulahuen strain expressing E. coli β-galactosidase gene, DTU VI) as reported. 2D and 3D culture systems of rat cardiomyoblast cell lines (H9C2(2-1)) were used to evaluate cardiotoxicity and to test the derivatives’ activity on intracellular forms (Y strain, DTU II). In all assays, the cell cultures were maintained at 37 °C under an atmosphere of 5% CO2.
L929 cells seeded in sterile 96-well microtiter plates were exposed or not to increasing concentrations (up to 200 µM) of the compounds. After seven days of incubation, the cell growth of treated cultures was compared to untreated control cells (100% cell growth). Cellular viability was assessed through AlamarBlue® (resazurin sodium salt) colorimetric assay, and the results were expressed as % reduction in cell growth/viability compared to untreated control, and an IC50 value determined. For the assays using H9C2 cultures, 25 × 10^3 cells/well were seeded in a 96-well microtiter plates (flat and U bottoms, precoated with agarose 1% for preparing 2- and 3D matrices, respectively) and maintained at 37 °C [48, 54].
The cardiac cultures were exposed or not to increasing concentrations of the nucleoside derivatives (up to 300 µM), and after seven days of incubation, their physiology and morphology was evaluated by light microscopy. Cell viability was measured using the PrestoBlue® (PB) colorimetric assay, the results evaluated as % reduction in cell growth/viability compared to untreated control, and an IC50 value determined. The data results from at least two independent experiments done in at least duplicates.

The subject of the next test is H9C2 2D cultures. In words: Cardiotoxicity on H9C2 monolayers (2D), PrestoBlue. Type of test: cell-based. The conditions noted are these: Rattus norvegicus, 168 h; 2D H9C2, seven days of compound incubation; 95% confidence interval in brackets; read-out: Cardiotoxic profile IC50 (µM) 2D.
Source text: as §3
L929 cells seeded in sterile 96-well microtiter plates were exposed or not to increasing concentrations (up to 200 µM) of the compounds. […] Cellular viability was assessed through AlamarBlue® (resazurin sodium salt) colorimetric assay, and the results were expressed as % reduction in cell growth/viability compared to untreated control, and an IC50 value determined. For the assays using H9C2 cultures, 25 × 10^3 cells/well were seeded in a 96-well microtiter plates (flat and U bottoms, precoated with agarose 1% for preparing 2- and 3D matrices, respectively) and maintained at 37 °C [48, 54].
[…] Cell viability was measured using the PrestoBlue® (PB) colorimetric assay, the results evaluated as % reduction in cell growth/viability compared to untreated control, and an IC50 value determined. The data results from at least two independent experiments done in at least duplicates.

Where [4] appears, read: Leishmania mexicana, read-out: Cas9 EC50 (μM), promastigotes, resazurin-based assay, highest concentration 100 µM.

LmexNT1, sequence (E9AQB5 entry or part of it): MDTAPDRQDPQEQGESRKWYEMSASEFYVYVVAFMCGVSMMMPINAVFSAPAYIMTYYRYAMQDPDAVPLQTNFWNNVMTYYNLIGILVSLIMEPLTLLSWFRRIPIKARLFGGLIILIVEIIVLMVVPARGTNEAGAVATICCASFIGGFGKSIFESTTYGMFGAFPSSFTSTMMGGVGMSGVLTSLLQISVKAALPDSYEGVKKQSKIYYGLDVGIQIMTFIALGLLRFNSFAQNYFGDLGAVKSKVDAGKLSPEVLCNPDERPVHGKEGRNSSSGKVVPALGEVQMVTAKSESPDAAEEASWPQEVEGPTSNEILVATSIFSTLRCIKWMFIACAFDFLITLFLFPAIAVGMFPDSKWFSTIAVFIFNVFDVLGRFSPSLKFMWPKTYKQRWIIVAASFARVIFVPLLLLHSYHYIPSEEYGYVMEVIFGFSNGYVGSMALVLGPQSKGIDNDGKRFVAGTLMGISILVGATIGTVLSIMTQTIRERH

For `Nc1ncnc2c1c(-c1ccc(Cl)c(Cl)c1)cn2[C@@H]1O[C@H](CO)[C@@H](O)[C@H]1O` [FH3147, 7-(3,4-dichlorophenyl)tubercidin], the EC50 in test [1] is 13.7 ± 1.25 µM; in test [2], more than 100 µM; in test [3] (setting [4]) it was 8.4 ± 1.6 µM; in test [3] (read-out: Cas9 EC50, promastigotes, resazurin-based assay, highest concentration 100 µM) it was 8.41 ± 1.61 µM.
Take `Nc1ncnc2c1c(Cl)cn2[C@@H]1O[C@H](CO)[C@@H](O)[C@H]1O` [FH3169]: the EC50 in test [1] worked out at 0.32 ± 0.05 µM; in test [2] it was 2 ± 0.19 µM; in test [3] (setting [4]) it was 0.24 ± 0.06 µM. The “Lmex^ΔNT1+TcrNT2 Sensitization (fold)” value in test [1] was found to be 6.3 fold. In addition, the Ki at LmexNT1 worked out at 2.8 ± 0.2 µM.
With `N=C(N)c1ccc(OCCCCCOc2ccc(C(=N)N)cc2)cc1` [Pentamidine, reference compound], the IC50 is more than 200 µM in the test with H9C2 3D cultures and 46 µM in the test with H9C2 2D cultures. In addition, the EC50 in test [1] stood at 1.12 ± 0.17 µM; in test [2], 1.25 ± 0.22 µM; in test [3] (setting [4]), 0.87 ± 0.1 µM. The “Lmex^ΔNT1+TcrNT2 Sensitization (fold)” value in test [1] stood at 1.11 fold.
For the compound `Nc1ncnc2c1c(-c1ccccc1)cn2[C@@H]1O[C@H](CO)[C@@H](O)[C@H]1O` [TH1004], the EC50 in test [1] stood at 101 ± 0.5 µM; in test [2] it was 138 ± 10 µM; in test [3] (setting [4]), 37 ± 0.23 µM. In addition, in test [1], the “Lmex^ΔNT1+TcrNT2 Sensitization (fold)” value was determined as 1.37 fold. Moreover, the inhibition constant Ki at LmexNT1 amounted to 3.8 ± 0.3 µM.
As for `Nc1ncnc2c1c(-c1ccc(Cl)cc1)cn2[C@@H]1O[C@H](CO)[C@@H](O)[C@H]1O` [TH1012], the EC50 worked out at 96.6 ± 0.3 µM in test [1], 280 ± 18 µM in test [2] and 52.5 ± 0.3 µM in test [3] (setting [4]). For the same compound, the “Lmex^ΔNT1+TcrNT2 Sensitization (fold)” value in test [1] is reported as 2.9 fold.
In the case of `Nc1ncnc2c1ccn2[C@@H]1O[C@H](CO)[C@@H](O)[C@H]1O` [Tubercidin, reference compound], the affinity at LmexNT1, expressed as Ki, was 5.8 ± 0.6 µM. Also, the EC50 in test [2] was found to be 25.7 ± 0.94 µM; in test [3] (setting [4]) it was 1.02 ± 0.16 µM.
